# From PubChem BioAssay (NCI)
#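 Test compounds were applied to cells in 96-well plates for 48 hours at 5 doses. GI50: concentration for 50% inhibition of growth. TGI is the concentration that stops growth completely.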
# Assays:
# Assay in all cases: NCI anticancer screen, dose series, 48 h
# [1] = test system: RXF 393 renal
# [2] = test system: NCI-H522 lung
# [3] = test system: IGROV1 ovarian
# [4] = test system: MCF7 breast
# [5] = test system: 786-0 renal
# [6] = test system: SK-MEL-28 melanoma
# [7] = test system: OVCAR-8 ovarian
# [8] = test system: A498 renal
# [9] = test system: HCT-116 colon
# [10] = test system: SNB-19 CNS
Compound,TGI [1] [µM],TGI [2] [µM],TGI [3] [µM],TGI [4] [µM],TGI [5] [µM],TGI [6] [µM],TGI [7] [µM],TGI [8] [µM],TGI [9] [µM],TGI [10] [µM],GI50 [1] [µM],GI50 [3] [µM],GI50 [4] [µM],GI50 [7] [µM],GI50 [8] [µM],GI50 [9] [µM],GI50 [2] [µM],GI50 [6] [µM]
O=C(/C=C/c1ccc(O)c(O)c1)OCCc1ccc2ccccc2c1,21.6,8.35,10.4,8.91,20.9,21.8,26.6,28.4,17.9,25.9,,,,,,,,
CN1CSC(=S)N(c2cccc(C(F)(F)F)c2)C1,> 100,30.8,37.3,33.3,73.6,52,74.5,82.1,> 100,61,,,,,,,,
COc1cc2nc(-c3ccc(Cl)cc3)cc(OCCCN3CCOCC3)c2cc1OC,3.79,,> 100,> 100,,,> 100,4.02,> 100,,1.12,0.99,2.49,2.15,1.59,1.59,,
CCCCI(O)OS(=O)(=O)c1ccc(C)cc1,> 100,48.9,73.8,> 100,> 100,> 100,> 100,> 100,> 100,> 100,,,,,,,,
Cc1ccc2cccc(-c3cccc4ccccc34)c2n1,35.7,66.5,> 100,,> 100,> 100,57.7,46,95,> 100,,,,,,,,
O=[N+]([O-])c1ccc(C[P+]2(c3ccccc3)CCCCC2)cc1,> 100,> 100,> 100,,> 100,> 100,> 100,> 100,> 100,> 100,,,,,,,,
CN(CCN1CCCC1)C1CCc2cc(Cl)c(Cl)cc2C1 (configuration not stated),,33,29.3,29,28.3,67.9,30.8,27.1,25.5,38.7,,,,,,,,
O=c1ccc2ccc(S)cc2o1,> 100,> 100,> 100,> 100,> 100,> 100,> 100,> 100,> 100,> 100,,,,,,,,
COc1ccc(C2Oc3ccc(Cl)cc3C=C2[N+](=O)[O-])cc1 (configuration not stated),> 100,> 100,> 100,> 100,> 100,> 100,> 100,,> 100,> 100,,,,,,,,
Cc1c(C)n(-c2ccccc2)c2nc(S(C)=O)nc(S(C)=O)c12 (configuration not stated),14.4,4.59,17.2,7.1,10.1,14.9,12.4,26.9,4.86,31.3,,,,,,,,
O=C(ON=C1c2ccccc2C(Br)C(Br)c2ccccc21)c1ccccc1 (configuration not stated),28.4,3.85,6.27,31.5,23,33.2,30.8,40.9,28,62.1,,,,,,,,
COc1cccc(C2c3cc4c(cc3OC(O)C2C)OCO4)c1OC (configuration not stated),23.5,,36.4,> 100,19.2,39.5,18.7,16.2,12.3,74.2,,,,,,,,
O=C(O)c1nc2ccc(C(F)(F)F)cc2[nH]c1=O,> 100,> 100,> 100,> 100,,> 100,> 100,> 100,> 100,> 100,,,,,,,,
COCOc1ccc(C(=O)Oc2cccc3c2OC(C)(C)O3)c(OCOC)c1,> 100,,> 100,> 100,> 100,> 100,> 100,> 100,> 100,,,,,,,,,
O=C1C=CC2(O[C@H](c3ccccc3)[C@@H](c3ccccc3)O2)[C@H](Sc2ccccc2O)C1,0.524,0.182,0.593,2.44,0.356,,0.217,5.15,0.309,3.74,,,,,,,,
COc1ccc2c(c1)c1c(n2CCN2CCCCC2)-c2cccc(OC)c2CC1,,18.8,29.8,35.4,55.4,35,32.3,49.2,> 100,29.7,,,,,,,,
COC(=O)CC(=O)OSc1ccccc1,25.3,12.8,20.2,,,,,65,26.9,> 100,,,,,,,,
Cc1ccccc1-c1nc2c(N)nc(N)nc2nc1N,,> 100,> 100,> 100,> 100,> 100,> 100,,> 100,> 100,,,,,,,,
CC(C)C(Br)CCC1=CCC(Br)(Br)C1 (configuration not stated),29,6.81,10.8,23.9,29.6,29,,32.8,27.9,32,,,,,,,,
NS(=O)(=O)c1nnc(NC(=O)N(c2ccccc2)c2ccccc2)s1,51.4,40.9,52.6,> 100,> 100,> 100,51.1,,83.8,> 100,,,,,,,,
CN(C)c1nc(Oc2nc(N(C)C)nc(N(C)C)n2)nc(N(C)C)n1,> 100,> 100,> 100,,> 100,> 100,> 100,> 100,> 100,> 100,,,,,,,,
COc1cc2ccc3c4cc(OC)c(OC)cc4c[n+](C)c3c2cc1O,> 100,78.7,> 100,,> 100,> 100,> 100,> 48.1,> 100,> 100,,,,,,,,
O=c1[nH]c(NCc2ccncc2)nc2nc[nH]c12,> 100,> 100,> 100,> 100,> 100,,> 100,,> 100,> 100,,,,,,,,

Compound,TGI [1] [µM],TGI [2] [µM],TGI [3] [µM],TGI [4] [µM],TGI [5] [µM],TGI [6] [µM],TGI [7] [µM],TGI [8] [µM],TGI [9] [µM],TGI [10] [µM],GI50 [1] [µM],GI50 [3] [µM],GI50 [4] [µM],GI50 [7] [µM],GI50 [8] [µM],GI50 [9] [µM],GI50 [2] [µM],GI50 [6] [µM]
Cc1nc(N)c(N2CCN(C#N)CC2)c(=O)[nH]1,,> 100,,> 100,> 100,> 100,> 100,> 100,> 100,> 100,,,,,,,,
CSCC[C@@H](NC(=O)[C@H](CC(C)C)NC(=O)C(Cc1cnc[nH]1)NC(=O)CNC(=O)[C@@H](NC(=O)[C@H](C)NC(=O)[C@H](Cc1c[nH]c2ccccc12)NC(=O)[C@H](CCC(N)=O)NC(=O)[C@@H](N)CC(N)=O)C(C)C)C(N)=O (some centres not stated),> 100,> 100,> 100,> 100,,> 100,> 100,> 100,> 100,> 100,,,,,,,,
CCOC(=O)c1c(N2CCCC2)[nH]c(=O)c(C(c2ccc(OC)cc2)c2c(O)c(C(=O)OCC)c(N3CCCC3)[nH]c2=O)c1O,> 100,> 100,,> 100,> 100,> 100,> 100,> 100,> 100,> 100,,,,,,,,
CN(C)C(=O)C(F)(F)C(c1ccc(F)cc1)C1C(=O)N(C)C(=O)N(C)C1=O (configuration not stated),> 100,,,> 100,> 100,> 100,> 100,> 100,> 100,> 100,,,,,,,,
Cc1nnc2n(c1=O)CCCN2C,> 100,,> 100,> 100,> 100,> 100,> 100,,> 100,> 100,,,,,,,,
Cn1nc(-c2ccc(S(=O)(=O)/N=C(\NN)Nc3ccc(Cl)cc3)s2)cc1C(F)(F)F,23.6,,36,44.5,30.6,33.8,43,31,29.2,30.2,,,,,,,,
CC(=O)NNc1nc(C)c(C(=O)NNC(=O)C(=O)Nc2ccc([N+](=O)[O-])cc2[N+](=O)[O-])s1,> 100,> 100,> 100,,,> 100,> 100,> 100,> 100,> 100,,,,,,,,
[N-]=[N+]=CC(=O)C1CCCN1C(=O)c1ccccc1 (configuration not stated),> 10,,> 10,> 10,> 10,> 10,> 10,> 10,> 10,> 10,,,,,,,,
O=c1oc2ccccc2c(O)c1Cc1ccc(Cc2c(O)c3ccccc3oc2=O)cc1,> 100,,> 100,> 100,,> 100,> 100,> 100,> 100,,,,,,,,,
Nc1ncnc2c1nnn2C1C=CC(CP(=O)(O)O)C1 (configuration not stated),> 100,,> 100,> 100,> 100,> 100,> 100,,> 100,> 100,,,,,,,,
COc1ccc(C)cc1N1C(=O)C2ON(Cc3ccc(CC(N)=O)cc3)C(c3c4ccccc4c(Cl)c4ccccc34)C2C1=O (configuration not stated),33.7,> 100,> 100,> 100,50.2,> 100,84.6,,32.7,> 100,,,,,,,,
OCc1cn(Cc2ccccc2)c2ccccc12,4.53,17.1,2.09,> 18,> 53,> 100,46.9,,> 26.3,> 100,,,,,,,,
CCOC(=O)/C=C/c1nc(C#N)c(N)o1,> 100,,> 100,> 100,> 100,> 100,> 100,> 100,> 100,> 100,,,,,,,,
Clc1cccc(-c2sc(-c3cccs3)cc2Cc2cccs2)c1,> 10,> 10,> 10,> 10,> 10,> 10,> 10,,> 10,> 10,,,,,,,,
COC(=O)/C=C(\C)CC/C=C(\C)CCC1OC1(C)C (configuration not stated),23.8,,26.9,21.8,23.6,23.3,25.7,28.6,24.3,> 75,,,,,,,,
CC1CC(N2CCOCC2)=Nc2ccccc2N1C (configuration not stated),> 100,> 100,> 100,,> 100,> 100,> 100,> 100,> 100,> 100,,,,,,,,
Cc1c(N2CCOCC2)nc2ccc(Cl)cc2c1-c1ccccc1,> 100,> 100,> 100,,> 100,> 100,> 100,> 100,> 100,> 100,,,,,,,,
O=C(c1ccco1)N(C(=O)N1CCCCC1)c1ccccc1,> 100,,> 100,> 100,> 100,> 100,> 100,> 100,> 100,> 100,,,,,,,,
CC(=O)O[C@@H](c1nccn1Cc1ccccc1)[C@H]1OC(C)(C)O[C@@H]1[C@H]1COC(C)(C)O1,> 100,> 100,> 100,> 100,> 100,> 100,> 100,> 100,> 100,,,,,,,,,
COC(=O)CNC(=O)C(CSC(=O)OCC1c2ccccc2-c2ccccc21)NC(=O)CCC(NC(=O)OCC1c2ccccc2-c2ccccc21)C(=O)OC (configuration not stated),32,17,31.6,42.8,26.6,> 100,30.4,,32.5,68.1,,,,,,,,
CN(/N=C1\C(=O)Nc2ccccc21)c1ccccc1,,> 100,> 100,> 100,,> 100,> 100,> 100,> 100,> 100,,,,,,,,
O=c1oc2ccc3ccccc3c2cc1-c1cn2ccsc2n1,37.4,36.8,23.2,19,32.7,57.3,41.2,,30.9,> 100,,,,,,,,
CCCCCCCCCCCCCCCCCCOc1ccccc1CC(=O)NCC[N+]1(C)CCOCC1,,5.05,,9.34,,49.8,29.9,44,> 100,,,,2.71,5.56,13.4,4.71,1.95,7.69
